# Test results taken from patent US20230149418A1, “METHODS AND SYNERGIC COMPOSITIONS FOR TREATING VIRAL INFECTIONS” (HADASIT MEDICAL RESEARCH SERVICES AND DEVELOPMENT LTD., priority 2018, published 2023).
# Like-named read-outs stand apart in the source and are kept apart here.
# Legend:
# HCMV TB40/E strain = experiment: Plaque reduction assay, HCMV TB40/E strain in human foreskin fibroblasts, single drugs and 2-drug combinations (Chou-Talalay); type: cell-based, human cytomegalovirus; settings: for Dose of drug alone at Fa 0.75: Fa 0.75, drug alone; for Dose of drug alone at Fa 0.9: Fa 0.9, drug alone; for Dose of drug alone at Fa 0.95: Fa 0.95, drug alone; for Dose of drug alone at Fa 0.97: Fa 0.97, drug alone; for Dose of drug alone at Fa 0.05: Fa (fraction of virus affected) 0.05, drug alone; for EC50: Human betaherpesvirus 5, Fibroblast
# Experimental: The CMV strain used was TB40/E. The CMV strain was propagated and tittered in human foreskin fibroblasts (HFF) cells. Cell-free virus stocks and cell-associated clinical isolates were maintained at -70° C. Viral stocks were tittered by serial 10-fold dilution in 24-well tissue culture plates containing HFF monolayers overlaid with agarose-medium. After incubation for 7 to 14 days, plaques were enumerated, and virus titer was determined as plaque forming units (PFU) per milliliter (ml). Stocks of artemisone (10 mM), ganciclovir (10 mM), BDCRB (120 mM), brincidofovir (1 mM), maribavir (10 mM) and letermovir (10 mM) were prepared in DMSO or H2O.
# Cell monolayers were inoculated in 24-well culture plates with 0.2 ml of virus suspension containing 60 to 100 PFU per well. After adsorption for 60 -120 min at 37° C., the inoculum was removed, and culture medium was replaced with agarose-medium overlay containing serial concentrations of the tested drug(s). Plates were incubated for 7-14 days at 37° C. in a 5% CO2 incubator. Plaques were then counted microscopically.
# The effect of a combination of artemisone with each one of ganciclovir (HCMV DNA polymerase), BDCRB (HCMV terminase inhibitor), brincidofovir (HCMV DNA polymerase inhibitor), maribavir (HCMV UL97 kinase inhibitor) and letermovir (HCMV terminase inhibitor) was evaluated by the classical plaque reduction assay. The in vitro activity of each of the above mentioned antiviral compounds alone or in combination with artemisone was evaluated by the classical plaque reduction assay, using HCMV TB40/E strain in human foreskin fibroblasts cells. The concentration of each antiviral compound that reduced the plaque formation by 50% (EC50) was determined as previously described in Wolf DG et al., J Clin Invest. 1995;95:257-63. The individual EC50 values in human foreskin fibroblasts were as follows: artemisone EC50 - 1 µM; ganciclovir EC50 - 1 µM; maribavir EC50 - 1 µM; BDCRB EC50 - 0.5 µM; letermovir EC50 - 5 nM; brincidofovir EC50 -1 nM.
# For the 2-drug combination studies, the EC50 value of each drug was used to determine an equipotent ratio between the two compounds (EC50 of drug 1 / EC50 of drug 2). Serial 2-fold dilutions of a mixture comprising artemisone and another antiviral compound at initial concentrations equivalent to 4-fold the equipotent ratio were added to duplicate wells of cells infected with HCMV. Overall, 5 different concentrations of the drug combinations were used: 4xEC50, 2xEC50, 1xEC50,0.5xEC50,0.25xEC50. The cell monolayers were inoculated in 24-well culture plates with 0.2 ml of virus suspension containing 60 to 100 plaque-forming unit (PFU) per well; the Multiplicity of infection (MOI) was 0.001-0.002 PFU/cell).
# D1 and D2 are the doses of the two drugs, and Dx is a dose causing to x% effect (LD0.5 is EC50). Briefly, the software extrapolated a combination index (CI) representing the interaction between the two drugs at specified levels of virus inhibition (that is 50%, 75%, 90%, 95%) versus the percentages of the inhibition induced by each drug alone and in combination (equation 16 in Chou).
# A weighted average CI (CIwt) was then calculated for each combination as (CI50+ 2×CI75+3×CI90+4×CI95)/10, to access the drug combinatory effects.
# The dose reduction index (DRI) was then calculated as described in Chou. In general, the DRI measures the fold of dose reduction of each drug in the combination at a given effect level compared with the doses of each drug alone. For each one of the below tables: Fa - fraction of virus affected; doses are provided in µm.
# HCMV = experiment: Ex vivo HCMV infection of human decidual (placental) tissue organ cultures, viral mRNA copy number; type: cell-based, human cytomegalovirus; settings: for EC50: Human betaherpesvirus 5; for Dose of drug alone at Fa 0.9: Fa 0.9, drug alone; for DRI (dose reduction index): combination artemisone + maribavir
# Experimental: Organ cultures were washed and stored at -80° C. until assayed. RNA was extracted, and the purified RNA samples were subjected to reverse transcription (RT), followed by quantitative real-time PCR. The viral mRNA copy number was normalized by the cellular housekeeping gene β-actin.
# We employed our model of HCMV infection in human decidual tissues (representing the maternal aspect of the chimeric human placenta), maintained as multi-cell-type 3D organ cultures as described in Weisblum Y. et al. J Virol 2011 85(24): 13204-13. doi: 10.1128/JVI.05749-11. For infection of the organ cultures, decidual tissues were placed in 48-well plates and inoculated with the virus (5x10^4 plaque forming units (PFU)/well) for 12 h to allow effective viral adsorption. The tissues were further monitored for viral infection and spread for 7 days. For determination of the drug EC50 values of in the tissues, serial drug concentrations: each drug separately or combination of the drugs were added to the infected decidual tissues during viral adsorption at any further medium replacement to keep the drug concentration constant. The results were compared to samples to which the drug was not added. The EC50 was defined as the drug concentration required to reduce the viral mRNA copy number by 50%. The effect of drug combinations was tested in accordance with the Chou-Talalay method. All comparative experiments were performed in parallel on tissues from the same donor.
# The dose reduction index (DRI) was then calculated as described in Chou. As described earlier, the DRI is a measure of how many folds the dose of each drug in a synergistic combination may be reduced at a given effect level compared with the doses of each drug alone. For each one of the below tables: Fa - fraction of virus affected; doses are provided in µm.
# [1] = Fa 0.5, drug alone, read-out: Dose of drug alone at Fa 0.5
# [2] = drug alone, human foreskin fibroblasts, read-out: EC50 (concentration that reduced the plaque formation by 50%)
smiles,measurement,setting,value
COc1cccc(N2CCN(C3=Nc4c(F)cccc4[C@H](CC(=O)O)N3c3cc(C(F)(F)F)ccc3OC)CC2)c1 [letermovir],Dose of drug alone at Fa 0.75,HCMV TB40/E strain,0.00438 µm
same,Dose of drug alone at Fa 0.9,HCMV TB40/E strain,0.00952 µm
same,Dose of drug alone at Fa 0.95,HCMV TB40/E strain,0.01614 µm
same,Dose of drug alone at Fa 0.97,HCMV TB40/E strain,0.02351 µm
same,Dose of drug alone at Fa 0.05,HCMV TB40/E strain,2.51E-4 µm
same,EC50,HCMV TB40/E strain; [1],2.01 nM
same,EC50,HCMV TB40/E strain; [2],5 nM
same,DRI (dose reduction index),"HCMV TB40/E strain; combination artemisone + letermovir, Fa 0.05",0.5226
same,DRI (dose reduction index),"HCMV TB40/E strain; combination artemisone + letermovir, Fa 0.5",1.044
same,DRI (dose reduction index),"HCMV TB40/E strain; combination artemisone + letermovir, Fa 0.75",1.351
same,DRI (dose reduction index),"HCMV TB40/E strain; combination artemisone + letermovir, Fa 0.9",1.75
same,DRI (dose reduction index),"HCMV TB40/E strain; combination artemisone + letermovir, Fa 0.9, listed as Let",1.749
same,DRI (dose reduction index),"HCMV TB40/E strain; combination artemisone + letermovir, Fa 0.95",2.084
same,DRI (dose reduction index),"HCMV TB40/E strain; combination artemisone + letermovir, Fa 0.97",up to 2.4
same,DRI (dose reduction index),"HCMV TB40/E strain; combination artemisone + letermovir, Fa 0.97, listed as Let",2.362
Nc1nc2c(ncn2COC(CO)CO)c(=O)[nH]1 [ganciclovir],Dose of drug alone at Fa 0.75,HCMV TB40/E strain,1.113 µm
same,Dose of drug alone at Fa 0.9,HCMV TB40/E strain,2.12 µm
same,Dose of drug alone at Fa 0.9,HCMV TB40/E strain; listed as GCV,2.121 µm
same,Dose of drug alone at Fa 0.95,HCMV TB40/E strain,3.287 µm
same,Dose of drug alone at Fa 0.97,HCMV TB40/E strain,4.491 µm
same,Dose of drug alone at Fa 0.05,HCMV TB40/E strain,0.1039 µm
same,EC50,HCMV TB40/E strain; [1],584 nM
same,EC50,HCMV TB40/E strain; [2],1000 nM
same,DRI (dose reduction index),"HCMV TB40/E strain; combination artemisone + ganciclovir, Fa 0.05",1.342
same,DRI (dose reduction index),"HCMV TB40/E strain; combination artemisone + ganciclovir, Fa 0.5",1.673
same,DRI (dose reduction index),"HCMV TB40/E strain; combination artemisone + ganciclovir, Fa 0.75",1.817
same,DRI (dose reduction index),"HCMV TB40/E strain; combination artemisone + ganciclovir, Fa 0.9, listed as GCV",1.973
same,DRI (dose reduction index),"HCMV TB40/E strain; combination artemisone + ganciclovir, Fa 0.95",2.09
same,DRI (dose reduction index),"HCMV TB40/E strain; combination artemisone + ganciclovir, Fa 0.95, listed as GCV",2.086
same,DRI (dose reduction index),"HCMV TB40/E strain; combination artemisone + ganciclovir, Fa 0.97",2.171
CC(C)Nc1nc2cc(Cl)c(Cl)cc2n1[C@H]1O[C@@H](CO)[C@H](O)[C@@H]1O [maribavir],EC50,"HCMV; ex vivo, Fa 0.5, drug alone, read-out: Dose of drug alone at Fa 0.5",186 nM
same,EC50,"HCMV; sole drug, ex vivo decidual tissues, read-out: EC50 (concentration required to reduce the viral mRNA copy number by 50%)",250 nM
same,Dose of drug alone at Fa 0.05,"HCMV; ex vivo, Fa 0.05, drug alone",0.01861 µm
same,Dose of drug alone at Fa 0.75,"HCMV; ex vivo, Fa 0.75, drug alone",0.4396 µm
same,Dose of drug alone at Fa 0.9,HCMV; ex vivo,1.03 µm
same,Dose of drug alone at Fa 0.9,"HCMV; ex vivo, listed as MBV",1.038 µm
same,Dose of drug alone at Fa 0.95,"HCMV; ex vivo, Fa 0.95, drug alone",1.862 µm
same,Dose of drug alone at Fa 0.97,"HCMV; ex vivo, Fa 0.97, drug alone",2.822 µm
same,DRI (dose reduction index),"HCMV; ex vivo, Fa 0.05",0.66
same,DRI (dose reduction index),"HCMV; ex vivo, Fa 0.5",0.982
same,DRI (dose reduction index),"HCMV; ex vivo, Fa 0.75",1.139
same,DRI (dose reduction index),"HCMV; ex vivo, Fa 0.9",1.3
same,DRI (dose reduction index),"HCMV; ex vivo, Fa 0.9, listed as MBV",1.321
same,DRI (dose reduction index),"HCMV; ex vivo, Fa 0.95, listed as MBV",1.461
same,DRI (dose reduction index),"HCMV; ex vivo, Fa 0.97",1.57
same,Dose of drug alone at Fa 0.75,HCMV TB40/E strain,0.8994 µm
same,Dose of drug alone at Fa 0.9,HCMV TB40/E strain,3.458 µm
same,Dose of drug alone at Fa 0.95,HCMV TB40/E strain,8.644 µm
same,Dose of drug alone at Fa 0.97,HCMV TB40/E strain,16.5865 µm
same,Dose of drug alone at Fa 0.05,HCMV TB40/E strain,0.00633 µm
same,EC50,HCMV TB40/E strain; [1],234 nM
same,EC50,HCMV TB40/E strain; [2],1000 nM
same,DRI (dose reduction index),"HCMV TB40/E strain; combination artemisone + maribavir, Fa 0.05",2.039
same,DRI (dose reduction index),"HCMV TB40/E strain; combination artemisone + maribavir, Fa 0.5",5.884
same,DRI (dose reduction index),"HCMV TB40/E strain; combination artemisone + maribavir, Fa 0.75",8.738
same,DRI (dose reduction index),"HCMV TB40/E strain; combination artemisone + maribavir, Fa 0.9",12.98
same,DRI (dose reduction index),"HCMV TB40/E strain; combination artemisone + maribavir, Fa 0.9, listed as MBV",12.9771
same,DRI (dose reduction index),"HCMV TB40/E strain; combination artemisone + maribavir, Fa 0.95",16.9821
same,DRI (dose reduction index),"HCMV TB40/E strain; combination artemisone + maribavir, Fa 0.97",20.6
same,DRI (dose reduction index),"HCMV TB40/E strain; combination artemisone + maribavir, Fa 0.97, listed as MBV",20.5640
